Laboratory results from patent US8536168B2 (Novartis AG, priority 2007, dated 2013).
Read-outs that look alike come from different tables or passages of the source. Values belong to the compound of their own block, whether it stands above or below them.

Tests used:
[1] = test system: Gli-luciferase activity; experiment: Reporter gene assay (RGA) in TMHh12 cells, antagonism of Gli-luciferase activity in the presence of a Smo agonist; type: cell-based
Method: Activity of the compounds was evaluated using a reporter gene assay (RGA) in TMHh12 cells.

[2] = target: mouse Smoothened receptor (Mus musculus, UniProt P56726); experiment: Smo binding assay, displacement of radio-labeled smoothened agonist, filter binding format (mouse); settings: displacement of small molecule agonist of Smoothened, read-out: Mouse Smo bdg., IC50
Sequence of mouse Smoothened receptor (P56726 33-793): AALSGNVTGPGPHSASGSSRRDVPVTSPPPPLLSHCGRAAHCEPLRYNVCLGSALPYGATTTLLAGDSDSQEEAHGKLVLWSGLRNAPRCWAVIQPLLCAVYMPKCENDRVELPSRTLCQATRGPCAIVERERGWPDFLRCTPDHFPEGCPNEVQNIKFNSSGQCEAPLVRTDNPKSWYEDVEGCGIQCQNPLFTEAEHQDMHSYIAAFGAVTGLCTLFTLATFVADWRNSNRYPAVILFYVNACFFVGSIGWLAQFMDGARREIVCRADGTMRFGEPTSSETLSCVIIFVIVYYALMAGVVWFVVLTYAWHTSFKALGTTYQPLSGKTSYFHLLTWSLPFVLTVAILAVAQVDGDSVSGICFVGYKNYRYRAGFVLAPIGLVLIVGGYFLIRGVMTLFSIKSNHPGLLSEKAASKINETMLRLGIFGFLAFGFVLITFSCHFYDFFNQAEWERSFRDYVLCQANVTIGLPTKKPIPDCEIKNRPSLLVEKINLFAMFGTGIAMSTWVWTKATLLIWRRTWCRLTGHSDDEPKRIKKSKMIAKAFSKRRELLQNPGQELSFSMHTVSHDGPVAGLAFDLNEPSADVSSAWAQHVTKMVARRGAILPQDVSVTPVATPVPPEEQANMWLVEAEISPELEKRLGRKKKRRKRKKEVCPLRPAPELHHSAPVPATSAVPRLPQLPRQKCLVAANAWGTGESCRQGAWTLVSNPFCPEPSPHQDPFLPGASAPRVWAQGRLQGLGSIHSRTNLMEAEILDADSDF
Text: A Smo binding assay was developed using radio-labeled smoothened agonist for compound competition.

[3] = target: human Smoothened receptor (Homo sapiens, UniProt Q99835); experiment: Smo binding assay, displacement of radio-labeled smoothened agonist, filter binding format (human); settings: displacement of small molecule agonist of Smoothened, read-out: Human Smo bdg., IC50
Sequence of human Smoothened receptor (Q99835 28-787): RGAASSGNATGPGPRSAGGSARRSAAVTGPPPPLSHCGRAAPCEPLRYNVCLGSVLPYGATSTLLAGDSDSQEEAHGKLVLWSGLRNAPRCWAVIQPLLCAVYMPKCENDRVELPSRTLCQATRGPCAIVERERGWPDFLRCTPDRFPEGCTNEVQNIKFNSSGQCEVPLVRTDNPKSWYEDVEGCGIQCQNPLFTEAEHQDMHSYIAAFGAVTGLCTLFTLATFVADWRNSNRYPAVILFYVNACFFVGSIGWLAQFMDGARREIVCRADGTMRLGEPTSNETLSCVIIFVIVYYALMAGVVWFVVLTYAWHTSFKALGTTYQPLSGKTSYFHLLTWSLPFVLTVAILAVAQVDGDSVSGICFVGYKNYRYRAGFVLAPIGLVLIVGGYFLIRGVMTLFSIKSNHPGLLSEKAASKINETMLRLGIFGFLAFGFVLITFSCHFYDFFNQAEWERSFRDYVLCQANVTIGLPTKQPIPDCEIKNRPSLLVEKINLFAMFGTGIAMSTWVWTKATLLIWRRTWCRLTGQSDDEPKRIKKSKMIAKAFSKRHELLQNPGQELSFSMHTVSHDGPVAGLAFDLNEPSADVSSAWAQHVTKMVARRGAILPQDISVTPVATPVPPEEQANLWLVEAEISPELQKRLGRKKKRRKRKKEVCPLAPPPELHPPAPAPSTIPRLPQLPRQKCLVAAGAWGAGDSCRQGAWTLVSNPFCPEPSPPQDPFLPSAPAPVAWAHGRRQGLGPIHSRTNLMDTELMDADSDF
Text: A Smo binding assay was developed using radio-labeled smoothened agonist for compound competition. Table 9 lists the IC50 for displacement of a small molecule agonist of Smoothened determined in a filter binding format for the mouse and human Smoothened receptor.

[4] = 25 nM small molecule Smo agonist, read-out: RGA (25 nM Smo agonist) IC50
[5] = read-out: RGA (1 nM Smo agonist) IC50, 1 nM small molecule Smo agonist

Compound: COC(=O)c1ccc(N2CCN(c3nnc(Cc4ccccc4)c4ccccc34)CC2)nn1 [Example 139]
IC50 [1, 4]: 1000 to 10000 nM
IC50 [1, 5]: 100 to 1000 nM
IC50 [2]: < 100 nM
IC50 [3]: < 100 nM

Compound: C[C@@H]1CN(c2nnc(Cc3ccccc3)c3ccccc23)CCN1c1ccc(C#N)cn1 [Example 142, 6-[(R)-4-(4-Benzyl-phthalazin-1-yl)-2-methyl-piperazin-1-yl]-nicotinonitrile]
IC50 [1, 4]: 100 to 1000 nM
IC50 [1, 5]: < 100 nM
IC50 [2]: < 100 nM
IC50 [3]: < 100 nM

Compound: CCOC(=O)c1ccc(N2CCN(c3nnc(Cc4ccccc4)c4ccccc34)C[C@H]2C)nc1 [Example 144, 6-[(R)-4-(4-Benzyl-phthalazin-1-yl)-2-methyl-piperazin-1-yl]-nicotinic acid ethyl ester]
IC50 [1, 4]: 100 to 1000 nM
IC50 [1, 5]: < 100 nM
IC50 [2]: < 100 nM
IC50 [3]: < 100 nM

Compound: CCOC(=O)c1cnc(N2CCN(c3nnc(Cc4ccccc4)c4ccccc34)C[C@H]2C(=O)OC)nc1C(F)(F)F [Example 147, 2-[(S)-4-(4-Benzyl-phthalazin-1-yl)-2-methoxycarbonyl-piperazin-1-yl]-4-trifluoromethyl-pyrimidine-5-carboxylic acid ethyl ester]
IC50 [1, 4]: 1000 to 10000 nM
IC50 [1, 5]: 100 to 1000 nM
IC50 [2]: 100 to 1000 nM
IC50 [3]: < 100 nM

Compound: CC(C)(O)c1cnc(N2CCN(c3nnc(Cc4ccccc4)c4ccccc34)CC2)nc1C(F)(F)F [Example 149]
IC50 [1, 4]: < 100 nM
IC50 [1, 5]: < 100 nM
IC50 [2]: < 100 nM
IC50 [3]: < 100 nM

Compound: CC(C)(O)c1cnc(N2CCN(c3nnc(Cc4ccccc4)c4ccccc34)CC2)cn1 [Example 150]
IC50 [1, 4]: < 100 nM
IC50 [1, 5]: < 100 nM
IC50 [2]: < 100 nM
IC50 [3]: < 100 nM

Compound: C[C@@H]1CN(c2nnc(Cc3ccccc3)c3ccccc23)CCN1c1ccc(C(C)(C)O)cn1 [Example 154]
IC50 [1, 4]: < 100 nM
IC50 [1, 5]: < 100 nM
IC50 [2]: < 100 nM
IC50 [3]: < 100 nM

Compound: C[C@H]1CN(c2ccc(C(C)(C)O)cn2)CCN1c1nnc(Cc2ccccc2)c2ccccc12 [Example 155]
IC50 [1, 4]: < 100 nM
IC50 [1, 5]: < 100 nM
IC50 [2]: < 100 nM
IC50 [3]: < 100 nM

Compound: C[C@@H]1CN(c2nnc(Cc3ccccc3)c3ccccc23)CCN1c1cnc(C(C)(C)O)cn1 [Example 156]
IC50 [1, 4]: < 100 nM
IC50 [1, 5]: < 100 nM
IC50 [2]: < 100 nM
IC50 [3]: < 100 nM

Compound: CC(=O)c1cnc(N2CCN(c3nnc(Cc4ccccc4)c4ccccc34)C[C@H]2C)cn1 [Example 157]
IC50 [1, 4]: < 100 nM
IC50 [1, 5]: < 100 nM
IC50 [2]: < 100 nM
IC50 [3]: < 100 nM

Compound: CN(C)C(=O)OCc1ccc(N2CCN(c3nnc(Cc4ccccc4)c4ccccc34)CC2)nc1 [Example 160, Dimethyl-carbamic acid 6-[4-(4-benzyl-phthalazin-1-yl)-piperazin-1-yl]-pyridin-3-ylmethyl ester]
IC50 [1, 4]: 100 to 1000 nM
IC50 [1, 5]: < 100 nM
IC50 [2]: 100 to 1000 nM
IC50 [3]: 100 to 1000 nM

Compound: COC(C)(C)c1ccc(N2CCN(c3nnc(Cc4ccccc4)c4ccccc34)CC2)nc1 [Example 161, 1-Benzyl-4-{-4-[5-(1-methoxy-1-methyl-ethyl)-pyridin-2-yl]-piperazin-1-yl}-phthalazine]
IC50 [1, 4]: < 100 nM
IC50 [1, 5]: < 100 nM
IC50 [2]: < 100 nM
IC50 [3]: < 100 nM

Compound: CC(O)c1ccc(N2CCN(c3nnc(Cc4ccccc4)c4ccccc34)CC2)nc1 (centres unmarked) [Example 163, 1-{6-[4-(4-Benzyl-phthalazin-1-yl)-piperazin-1-yl]-pyridin-3-yl}-ethanol]
IC50 [1, 4]: 100 to 1000 nM
IC50 [1, 5]: < 100 nM
IC50 [2]: < 100 nM
IC50 [3]: < 100 nM

Compound: CC1(c2ccc(N3CCN(c4nnc(Cc5ccccc5)c5ccccc45)CC3)nc2)OCCO1 [Example 164, 1-Benzyl-4-(4-(5-(2-methyl-1,3-dioxolan-2-yl)pyridin-2-yl)piperazin-1-yl)phthalazine]
IC50 [1, 4]: < 100 nM
IC50 [1, 5]: < 100 nM
IC50 [2]: < 100 nM
IC50 [3]: < 100 nM

Compound: CC(O)(CO)c1ccc(N2CCN(c3nnc(Cc4ccccc4)c4ccccc34)CC2)nc1 (centres unmarked) [Example 167, 2-{6-[4-(4-Benzyl-phthalazin-1-yl)-piperazin-1-yl]-pyridin-3-yl}-propane-1,2-diol]
IC50 [1, 4]: 100 to 1000 nM
IC50 [1, 5]: < 100 nM
IC50 [2]: < 100 nM
IC50 [3]: < 100 nM

Compound: CN(C)CC(C)(O)c1cnc(N2CCN(c3nnc(Cc4ccccc4)c4ccccc34)CC2)cn1 (centres unmarked) [Example 169, 2-[4-(4-Benzyl-phthalazin-1-yl)-3,4,5,6-tetrahydro-2H-[1,2′]bipyrazinyl-5′-yl]-1-dimethylamino-propan-2-ol]
IC50 [1, 4]: 100 to 1000 nM
IC50 [1, 5]: < 100 nM
IC50 [2]: < 100 nM
IC50 [3]: < 100 nM

Compound: CC(O)(CN1CCC(O)CC1)c1cnc(N2CCN(c3nnc(Cc4ccccc4)c4ccccc34)CC2)cn1 (centres unmarked) [Example 170, 1-{2-[4-(4-Benzyl-phthalazin-1-yl)-3,4,5,6-tetrahydro-2H-[1,2′]bipyrazinyl-5′-yl]-2-hydroxy-propyl}-piperidin-4-ol]
IC50 [1, 4]: 100 to 1000 nM
IC50 [1, 5]: < 100 nM
IC50 [2]: 100 to 1000 nM
IC50 [3]: 100 to 1000 nM

Next, values leading:

IC50 [1, 4]: 100 to 1000 nM
IC50 [1, 5]: < 100 nM
IC50 [2]: < 100 nM
IC50 [3]: < 100 nM
Compound: COC(=O)c1cnc(N2CCN(c3nnc(Cc4ccccc4)c4ccccc34)CC2)cn1 [Example 138]

IC50 [1, 4]: 100 to 1000 nM
IC50 [1, 5]: < 100 nM
IC50 [2]: < 100 nM
IC50 [3]: < 100 nM
Compound: C[C@H]1CN(c2nnc(Cc3ccccc3)c3ccccc23)CCN1c1ccc(C#N)cn1 [Example 143, 6-[(S)-4-(4-Benzyl-phthalazin-1-yl)-2-methyl-piperazin-1-yl]-nicotinonitrile]

IC50 [1, 4]: < 100 nM
IC50 [1, 5]: < 100 nM
IC50 [2]: < 100 nM
IC50 [3]: < 100 nM
Compound: CC(C)(O)c1cnc(N2CCN(c3nnc(Cc4ccccc4)c4ccccc34)CC2)cc1C(F)(F)F [Example 148]

IC50 [1, 4]: 100 to 1000 nM
IC50 [1, 5]: < 100 nM
IC50 [2]: < 100 nM
IC50 [3]: < 100 nM
Compound: CC(C)(O)c1cnc(N2CCN(c3nnc(Cc4ccccc4)c4ccccc34)CC2)nc1 [Example 151]

IC50 [1, 4]: 100 to 1000 nM
IC50 [1, 5]: < 100 nM
IC50 [2]: < 100 nM
IC50 [3]: 100 to 1000 nM
Compound: CC(C)(O)c1ccc(N2CCN(c3nnc(Cc4ccccc4)c4ccccc34)CC2)nn1 [Example 152]

IC50 [1, 4]: 1000 to 10000 nM
IC50 [1, 5]: 100 to 1000 nM
IC50 [2]: 100 to 1000 nM
IC50 [3]: 100 to 1000 nM
Compound: COCC(=O)OCc1ccc(N2CCN(c3nnc(Cc4ccccc4)c4ccccc34)CC2)nc1 [Example 159, Methoxy-acetic acid 6-[4-(4-benzyl-phthalazin-1-yl)-piperazin-1-yl]-pyridin-3-ylmethyl ester]

IC50 [1, 4]: < 100 nM
IC50 [1, 5]: < 100 nM
IC50 [2]: < 100 nM
IC50 [3]: < 100 nM
Compound: CC(=O)NC(C)(C)c1ccc(N2CCN(c3nnc(Cc4ccccc4)c4ccccc34)CC2)nc1 [Example 162, N-(1-{6-[4-(4-Benzyl-phthalazin-1-yl)-piperazin-1-yl]-pyridin-3-yl}-1-methyl-ethyl)-acetamide]

IC50 [1, 4]: < 100 nM
IC50 [1, 5]: < 100 nM
IC50 [2]: < 100 nM
IC50 [3]: < 100 nM
Compound: CC(C)c1cnc(N2CCN(c3nnc(Cc4ccccc4)c4ccccc34)CC2)cn1 [Example 165, 4-(4-Benzyl-phthalazin-1-yl)-5′-isopropyl-3,4,5,6-tetrahydro-2H-[1,2′]bipyrazinyl]

IC50 [1, 4]: 100 to 1000 nM
IC50 [1, 5]: < 100 nM
IC50 [2]: < 100 nM
IC50 [3]: < 100 nM
Compound: CC(O)(CO)c1cnc(N2CCN(c3nnc(Cc4ccccc4)c4ccccc34)CC2)cn1 (centres unmarked) [Example 166, 2-[4-(4-Benzyl-phthalazin-1-yl)-3,4,5,6-tetrahydro-2H-[1,2′]bipyrazinyl-5′-yl]-propane-1,2-diol]
